Data set [1] concerns HUVEC. It is filed as cell-based, human. How it is done: (§1) Resazurin reduction assay (Fisher Scientific) was used to evaluate the potential cytotoxicity of antifibrinolytic agents toward primary human endothelial cells and skin fibroblasts. Phosphate buffer that was used to dissolve the samples was included as negative control. The assay is based on reduction of the non-fluorescent dye resazurin, to the highly fluorescent resorufin by viable cells. […] Briefly, cells in 96-well cell culture plates were treated with different concentrations of antifibrinolytic compounds (as described above). After 24 hours resazurin reagent was added to each well and the plates were incubated at 37° C. for 4 hours. Fluorescence was measured by the FLUOstar Omega Microplate Reader (BMG Labtech) using an excitation wavelength of 544 nm and an emission wavelength of 590 nm. Each assay was done in duplicate, with three replicates each. The viability was evaluated based on comparison with untreated cells.

For data set [2] the following is noted: humans; cited from earlier work.
In data set [3] the test system is primary human dermal skin fibroblasts. The data set can be described thus: Caspase 3/7 assay, skin fibroblasts. It is filed as cell-based. The conditions noted are these: 24 hours; 30 μM KD1TM, 30 μM BPTI, 60 mM EACA, 30 mM TXA. The procedure:
The influence of antifibrinolytic agents on apoptosis in cells was detected using the Caspase-Glo 3/7 Assay kit (Promega). Caspase 3 and 7 are activated in cells that undergo apoptosis. The assay provides a luminogenic substrate for caspase 3 and 7. Enzymatic activity leads to luminescence, which is proportional to the amount of caspase activity present. Cells were seeded in 96-well plates and treated with antifibrinolytic agents or phosphate buffer (solvent control). Taxol was included as positive control. After 24 hours of treatment, caspase reagent was added to each well, mixed and incubated for 1 hour at room temperature. Luminescence was measured using the FLUOstar Omega Microplate Reader (BMG Labtech).

The test system is the same in data set [4]. The data set can be described thus: Resazurin reduction (alamarBlue) viability assay, skin fibroblasts. It is filed as cell-based. The procedure:
as §1
(Resazurin is reduced to fluorescent resorufin, in cell work by metabolically active cells.)

The conditions of data set [5]: rats and dogs; cited from earlier work.
Data set [6] deals with mouse tail bleeding model. The conditions noted are these: cited from earlier work.
The test system of data set [7] is tPA-induced plasma clot fibrinolysis. The data set can be described thus: Fibrinolysis (clot lysis) assay in normal pooled plasma. In kind it is biochemical. As to conditions: human NPP. The procedure: The method of Sperzel and Huetter (40) was followed with minor modifications as outlined earlier (32,41). Briefly, IIa was used to initiate fibrin formation in NPP and the lysis of the formed clot (fibrinolysis) was induced by simultaneous addition of tPA. Clot formation and lysis were monitored with a Molecular Devices microplate reader (SPECTRAmax 190) measuring the optical density at 405 nm. […] Two hundred twenty-five μL of this mixture was then added to 25 μL IIa and tPA in TBS/BSA containing 25 mM CaCl2). In the 250 μL final volume, concentration of IIa was 0.15 μg/ml and that of tPA was 1 μg/ml. Under control conditions (zero tPA and zero test compound), OD405 increased immediately indicating clotting followed by an extremely slow decrease representing fibrinolysis. As clotting was almost complete after 5 minutes, fibrinolysis induced by tPA was evaluated as a relative decrease of OD405 up to 60 minutes.
Addition of thrombin (IIa) to human normal pooled plasma (NPP) caused fibrin formation, which is reflected by the increase in OD405 (black curve, FIGS. 3A and 3B). Simultaneous addition of tPA caused initial clot formation followed by dissolution of fibrin induced by tPA-mediated conversion of plasminogen to plasmin (black curve with closed circles, FIGS. 3A and 3B); the midpoint of fibrinolysis was ˜8 min in each case. Both antifibrinolytic agents inhibited fibrinolysis in a dose-dependent manner.

In data set [8] the target is DIP-δplasmin. As to the kind of experiment: Surface plasmon resonance binding to DIP-δplasmin. As to conditions: read-out: Affinity of binding to the plasmin kringle domain. How it is done: Active-site blocked δplasmin was generated by treating δplasmin with equal volumes of 1 M Tris-HCl, pH 8.0 and 1 M DFP (final concentration of 1 mM DFP) at room temperature for 20 minutes, followed by an incubation on ice for several hours. Additional equal volumes of 1M Tris-HCl, pH 8.0 and 1M DFP (final concentration of 2 mM) were added and the reaction was incubated at room temperature for 20 minutes and then over night at 4° C. The DFP inhibited Splamsin (DIP-δplasmin) was dialyzed against 20 mM HEPES pH 7.5, containing 150 mM NaCl and assayed for residual activity using S-2251 synthetic substrate hydrolysis. Based upon the residual activity, >99% of the δplasmin was inactivated.
Binding studies were performed on a Biacore T100 flow biosensor (Biacore, Uppsala, Sweden) at 25° C. DIP-δplasmin (˜98% purity using SDS-PAGE) or tPA (>98% purity using SDS-PAGE) was immobilized on carboxymethyl-dextran flow cell (CM5 sensor chips, GE Healthcare) using amine-coupling chemistry. Flow cell surfaces were activated with a mixture of 1-ethyl-3-(3-dimethylaminopropyl) carbodiimide and N-hydroxysulfosuccinimide for 5 min (flow rate 10 μl/min), after which the protein (20 μg/ml in 10 mM sodium acetate, pH 5.5) was injected onto the surface. Unreacted sites were blocked for 5 minutes with 1 M ethanolamine. The analyte KD1-Y11T/L17R-KT (100 to 2000 nM) was perfused through flow cells in HBS-P buffer (20 mM HEPES, pH 7.4, 100 mM NaCl, 0.005% (v/v) P20) at 10 μl/minutes for 6 minutes. After changing to HBS-P buffer without the protein, analyte dissociation was monitored for 10 min. Flow cells were regenerated with HBS-P containing 20 mM EACA. Data were corrected for nonspecific binding by subtracting signals obtained with the analyte infused through a flow cell without the coupled protein. Binding was analyzed with BIAevaluation software (Biacore) using a 1:1 binding model. Kd values were calculated from the quotient of the derived dissociation (kd) and association (ka) rate constants.

Data set [9] addresses T1, Plasma kallikrein (pKLK) (Homo sapiens, UniProt P03952).
T1 construct: Plasma kallikrein (pKLK) was from Enzyme Research Laboratories; purchased Enzyme Research Laboratories (South Bend, IN)
As to the kind of experiment: Protease inhibition assay, plasma kallikrein. In kind it is biochemical. How it is done:
All reactions were carried out in TBS, pH 7.5 (50 mM Tris-HCL, pH 7.5, containing 100 mM NaCl), containing 0.1 mg bovine serum albumin/ml (TBS/BSA) and 2 mM Ca2+(TBS/BSA/Ca2+, pH 7.5). […] The inhibition constant, K* was determined using the nonlinear regression data analysis program Grafit.
Ki values were obtained by correcting for the effect of substrate according to Beith (38), using equation 2, where (S) is substrate concentration and KM is specific for each enzyme.

Data set [10] deals with T2, human plasmin (Homo sapiens, UniProt P00747).
T2 construct: purchased Hematologic Technologies Inc (Essex Junction, VT)
The data set can be described thus: Stability study: plasmin inhibition after storage. It is filed as biochemical. As to conditions: 0.59 mg/ml kept at 4° C., room temperature and 37° C. for a week. How it is done: In stability studies, the KD1Y11T/R15K/L17R-KT sample (0.59 mg/ml) was kept at 4° C., at room temperature and at 37° C. for a week and its plasmin inhibition was studied each day. […] Reactions were carried out in TBS/BSA and 2 mM calcium. Human plasmin was incubated with various concentrations of rHuKD1-TM for 1 hour at room temperature in a 96-well microtiter plate. Synthetic substrate for plasmin was then added to a final concentration of 1 KM, and residual amidolytic activity was measured in a kinetic microplate reader (Molecular Devices). In Table 7 below, the apparent inhibition constant, Ki* was determined using the nonlinear regression data analysis program. Data are analyzed using an equation for a tight-binding inhibitor and Ki values are obtained by correcting for the effect of substrate concentration.

Data set [11] deals with tPA-induced lysis of clot formed in whole blood. The data set can be described thus: Thromboelastography, tPA-induced clot lysis in whole blood. It is filed as biochemical. How it is done:
The effect of different concentrations of KD1-Y11T/R15K/L17R-KCOOH (KD1TM) on fibrinolysis was evaluated with thromboelastography (TEG) using a TEG 5000 Thrombelastograph (Haemonetics Corp, Braintree, MA, USA). Each clot formation/lysis assay contained 300 μL of citrated whole blood, thrombin (0.15 μM, final concentration), tPA (2 nM, final concentration), CaCl2) (10 mM, final concentration) and various concentrations of KD1TM in TBS/BSA (50 mM Tris-HCl, 100 mM NaCl, containing 0.1 mg bovine serum albumin/mL) to make the final volume to 360 μL. Thrombin, tPA and CaCl2) were added last to initiate simultaneous clotting and fibrinolysis. […] Each experiment was performed at least 60 min after the maximal amplitude was reached to establish the LY60 value. TEG Analytical Software (version 4.2.3; Haemonetics Corporation, Braintree, MA, USA) was used to calculate the time to clot initiation (R), maximal clot strength (maximal amplitude (MA), which was directly related to the shear elastic modulus strength, G), and percent lysis 60 min after MA (LY60).

Like-named read-outs stand apart in the source and are kept apart here.

T1 sequence (P03952 20-390 limits assumed): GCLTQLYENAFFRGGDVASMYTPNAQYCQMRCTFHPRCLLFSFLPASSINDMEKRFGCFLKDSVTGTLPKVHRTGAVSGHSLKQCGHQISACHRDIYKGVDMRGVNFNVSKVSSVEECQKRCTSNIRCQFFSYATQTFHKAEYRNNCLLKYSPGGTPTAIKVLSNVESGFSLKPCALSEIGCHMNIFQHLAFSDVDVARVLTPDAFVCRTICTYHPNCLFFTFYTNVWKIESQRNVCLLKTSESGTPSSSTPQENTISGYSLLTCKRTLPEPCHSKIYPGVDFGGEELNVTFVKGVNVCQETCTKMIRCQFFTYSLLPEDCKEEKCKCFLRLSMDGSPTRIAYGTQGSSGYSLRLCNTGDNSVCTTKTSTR
T1 sequence (P03952 391-638 limits assumed): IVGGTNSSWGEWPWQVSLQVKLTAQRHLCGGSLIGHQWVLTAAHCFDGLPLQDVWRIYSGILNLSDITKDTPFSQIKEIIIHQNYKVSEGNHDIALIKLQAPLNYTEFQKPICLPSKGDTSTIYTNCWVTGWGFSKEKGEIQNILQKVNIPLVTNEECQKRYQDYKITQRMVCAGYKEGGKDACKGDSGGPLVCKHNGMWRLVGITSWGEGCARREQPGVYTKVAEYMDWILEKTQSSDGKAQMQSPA
T2 sequence (P00747 97-580 limits assumed): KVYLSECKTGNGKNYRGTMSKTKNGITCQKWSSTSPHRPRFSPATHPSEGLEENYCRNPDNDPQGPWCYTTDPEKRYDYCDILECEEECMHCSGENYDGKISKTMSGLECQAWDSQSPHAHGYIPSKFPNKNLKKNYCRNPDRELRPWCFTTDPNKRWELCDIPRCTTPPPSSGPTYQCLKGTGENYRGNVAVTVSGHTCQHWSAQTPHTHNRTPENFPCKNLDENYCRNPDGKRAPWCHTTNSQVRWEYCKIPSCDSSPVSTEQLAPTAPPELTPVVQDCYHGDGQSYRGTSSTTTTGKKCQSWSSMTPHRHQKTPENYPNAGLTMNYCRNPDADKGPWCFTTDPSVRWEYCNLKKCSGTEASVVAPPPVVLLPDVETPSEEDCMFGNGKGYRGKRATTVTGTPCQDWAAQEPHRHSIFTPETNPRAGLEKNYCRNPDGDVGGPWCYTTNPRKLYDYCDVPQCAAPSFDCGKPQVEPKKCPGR
T2 sequence (P00747 581-810 limits assumed): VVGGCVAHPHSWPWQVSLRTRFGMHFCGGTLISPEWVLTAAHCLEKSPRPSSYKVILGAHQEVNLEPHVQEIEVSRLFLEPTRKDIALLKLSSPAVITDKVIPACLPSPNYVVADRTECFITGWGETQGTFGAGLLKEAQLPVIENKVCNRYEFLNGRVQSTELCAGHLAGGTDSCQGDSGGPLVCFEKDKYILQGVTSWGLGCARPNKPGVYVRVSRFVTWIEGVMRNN

Take `NC[C@H]1CC[C@H](C(=O)O)CC1` [TXA, tranexamic acid]: the “HUVEC viability (FIG. 4)” value in [1] was “not significantly different from the untreated cells”. Moreover, the half-life in data set [2] was approximately 2 h. For the same molecule, the “Apoptosis, caspase-3/7 activity, skin fibroblasts (FIG. 6)” value in [3] is given as “not in fibroblasts”. Also, the “Cell viability, primary human skin fibroblasts (Example 1)” value in [4] (24 hours, KD1-Y11T/L17R-KT and aprotinin 0.1 μM-30 μM, EACA 1-60 mM, TXA 0.2-30 mM) was “equally unchanged”. In addition, the “Fibroblast cell viability (FIG. 5)” value in data set [4] (24 hours, indicated concentrations, p>0.05) is “not significantly different from the untreated cells”. In [5], the plasma half-life is approximately 2 h.

As to Textilinin-1 [Q8008], the “Reduction of blood loss” value in data set [6] was “as effective as aprotinin in reducing blood loss”.

“KD1Y11T/R15K/L17R-KT: 60-residue triple mutant of Kunitz domain1 of human TFPI-2, SEQ ID NO: 1, C-terminal IEK, expressed in Pichia (NAEICLLPLDTGPCKARLLRYYYDRYTQSCRQFLYGGCEGNANNFYTWEACDDACWRIEK)”: the “HUVEC viability (FIG. 4)” value in data set [1] is “not significantly different from the untreated cells”. Moreover, the “Fibrinolysis midpoint (Example 2)” value in [7] (0.5 μM inhibitor + tPA, ˜8 min without inhibitor) is approximately 15 min. Further, in data set [7] (3 μM inhibitor + tPA), the “Effect on tPA induced fibrinolysis (Example 2)” value is “completely prevented tPA induced fibrinolysis”. Moreover, in data set [7] (3 μM inhibitor, no tPA), the “Effect on clot formation or fibrinolysis in the absence of tPA (Example 2)” value is “had no effect on clot formation or fibrinolysis”. The Kd in [8] is approximately 40 nM. In [9], the “Concentration until which kallikrein inhibition is not observed” value was 25 µM. Further, the “Stability of plasmin inhibition on storage” value in data set [10] is “plasmin inhibitory properties are not altered”. For the same molecule, the G in data set [11] (2 nM tPA + 2 μM KD1TM, […] thrombin) worked out at 3525.4 dyn/cm^2. The MA in [11] (2 nM tPA + 4 μM KD1TM, […] thrombin) amounted to 44.2 mm. In data set [11] (2 nM tPA, 4 μM KD1TM), the “Clot strength MA restored, relative to blood without tPA” value is 98% and the “G restored, relative to blood without tPA” value is 96%. Also, in data set [4], the “Fibroblast cell viability (FIG. 5)” value is listed as “not significantly different from the untreated cells”.

The half-life is how long it takes for the measured level to halve.

The values above are taken from patent publication US20230331817A1 (The Regents of the University of California, priority 2020, published 2023).
